Source: US8703811B2, “Small molecule inhibitors of Plasmodium falciparum dihydroorotate dehydrogenase” (Genzyme Corporation, priority 2008, dated 2014)
In brackets after ≈: the same amount, converted by molar mass. Where two headings read alike, the source gives them in different places.

Legend:
Hepatic clearance, rat = assay type: in vitro ADME
Text: (§1) Clearance of drug by the liver will depend on the rate of delivery of drug to the liver (the hepatic blood flow) and on the efficiency of removal of drug which is presented to it (the extraction ratio). The hepatic clearance of compounds can be determined by standard methods known in the art. Such methods are described in, for example, Naritomi, Y; Terashita, S; Kagayama, A; Sugiyama, Y. “Utility of Hepatocytes in Predicting Drug Metabolism: Comparison of Hepatic Intrinsic Clearance in Rats and Humans in Vivo and in Vitro.” 2003, 31 (5): pages 580-588.

Cytochrome P450 2D6 = Cytochrome P450 2D6 (Homo sapiens (Human), UniProt P10635); assay: Cytochrome P450 inhibition, 2D6; assay type: in vitro ADME
Text: (§2) Rapid screening for cytochrome P450 inhibitors is part of the current paradigm for avoiding development of drugs likely to give clinical pharmacokinetic drug-drug interactions and associated toxicities. There are commercially available assays for such screenings. For example, BD Biosciences (http://www.bdbiosciences.com/index.shtml) provides a technical bulletin describing a detailed, step-by-step procedure for the performance of the high throughput cytochrome P450 inhibition testing method.

P. falciparum Dd2 = assay: Inhibition of in vitro P. falciparum culture, [3H]-hypoxanthine uptake, Dd2; assay type: cell-based; details: Plasmodium falciparum; for EC50: DD2, Table 2b, read-out: Dd2 EC50; for IC50: DD2, Table 3, [3H]-hypoxanthine uptake, read-out: Dd2 IC50
Outline: (§3)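 Parasite growth inhibition measured as relative reduction of [3H]-hypoxanthine uptake in in vitro cultures. Values from non-linear regression fit, using relative growth velocity in place of product-formation rate.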

Hepatic clearance, human = assay type: in vitro ADME
Text: as §1

Cytochrome P450 2C19 = Cytochrome P450 2C19 (Homo sapiens (Human), UniProt P33261); assay: Cytochrome P450 inhibition, 2C19; assay type: in vitro ADME
Text: as §2

Log D measurement = assay type: physicochemical; details: octanol/water; read-out: LogD
Text: Many standard techniques are known in the art to establish the distribution coefficient of a compound between two particular solvents. The following description is one such technique that could be used to determine the distribution coefficient: The shake-flask method, which consists of dissolving some of the compound in a volume of octanol and water, then physically shaking the mixture and allowing the two solvents to fully separate. The concentration of the compound in each solvent is then measured. The most common method of measuring the distribution of the solute is by HPLC or UV/Vis spectroscopic techniques.

hsDHODH = hsDHODH (Homo sapiens (Human), UniProt Q02127); assay: DCIP assay, hsDHODH; assay type: biochemical; details: Table 3; DCIP assay, 20 nM hsDHODH; read-out: hsDHODH IC50
Text: Type 2 DHODH activity was monitored with either the direct assay measuring the formation of orotate or via a chromogen reduction assay using DCIP. Although the extinction coefficient and absorption wavelength are preferable for the chromogen reduction assay, the inorganic electron acceptor DCIP can be utilized by DHODH as the final electron acceptor in lieu of CoQn when the endogenous substrate is at a low concentration. As such, the direct assay was used to measure the binding affinity of pfDHODH to CoQD and L-DHO. The enzymatic reaction was performed by varying the L-DHO concentration (1-400 μM) or CoQD concentration (1-200 μM) while keeping the other substrate constant and in excess. The formation of orotate was measured continuously at 296 nm (ε296=4.3 mM^−1 cm^−1). Inhibition of DHODH by small molecules was evaluated using the chromogen based assay with a final substrate concentration of 200 μM L-DHO, 18 μM CoQD, and 100 μM DCIP, unless otherwise noted. The reduction of DCIP was monitored at 600 nm (ε600=18.8 mM^−1 cm^−1).
Substrate specificity and enzyme inhibition data was analyzed with GraphPad Prism Version 4 for Windows (GraphPad Software). Kinetic constants were calculated by non-linear regression fitting of the data to the Michaelis-Menten equation [36]. IC50 values were determined by non-linear regression fitting of the data to Equation 1: […]

Permeability = assay type: in vitro ADME; details: Caco-2
Protocol: Permeability assays using the Caco-2 colon carcinoma cell line are being used throughout the pharmaceutical industry to estimate the ability of potential drug compounds to cross the intestinal epithelium. Caco-2 cell permeability studies are performed using Caco-2 cell monolayers grown on microporous membranes in multiwell insert systems. With the inserts suspended in the wells of multiwell plates, test compounds can be added to either the upper (apical) or lower (basolateral) chamber to measure permeability in the absorptive (apical to basolateral) or secretive (basolateral to apical) directions. Samples are then taken from the opposite chamber at various time intervals to measure the amount of test compound that has crossed the cell monolayer. A representative method to generate permeability data similar to that in Table 3 can be found in Alsenz, J; Haenel, E. “Development of a 7-Day, 96-Well Caco-2 Permeability Assay with High-Throughput Direct UV Compound Analysis.” Pharmaceutical Research 2003 20(12): p 1961-1969.
Parallel artificial membrane permeability assay (PAMPA) utilizes a simple phospholipid-coated filter disc to measure membrane permeability. It was developed as an alternative to the low throughput. Caco-2 cell permeability assay used to correlate passive permeability with in vivo oral absorption. A representative publication disclosing this method is Kerns, E H; Di, L; Petusky, S; Farris, M; Ley, R; Jupp, P. “Combined application of parallel artificial membrane permeability assay and Caco-2 permeability assays in drug discovery.” J. Pharma Sci. 2004, 93 (6), pages 1440-53.
Cell culture methods (e.g. Caco-2, HT-29 and MDC) and physicochemical methods such as PAMPA and immobilized artificial membrane (IAM) columns are known in the art and can be used to obtain data such as that in Table 3. Hidalgo, I J; “Assessing the absorption of new pharmaceuticals.” Curr Top Med. Chem. 2001 November; 1(5): p 385-401.

Cytochrome P450 3A4 = Cytochrome P450 3A4 (Homo sapiens (Human), UniProt P08684); assay: Cytochrome P450 inhibition, 3A4; assay type: in vitro ADME
Text: as §2

Solubility measurement = assay type: physicochemical; details: aqueous buffer, thermodynamic from solid; read-out: Solubility
Text: Many standard techniques are known in the art to establish the solubility of a compound in a particular solvent. The following description is one such technique that could be used to determine the solubility: Equilibrium solubility measurements start with the solid form of the compound (crystalline form preferred). The powder is physically mixed with an aqueous buffer (defined pH) until equilibrium is reached. Either centrifugation or filtration can be used to separate the solution from the remaining solid. The amount dissolved in the solution can be determined by any one of many known methods including HPLC or UV/Vis spectroscopic techniques.

P. falciparum 3D7 = assay: Inhibition of in vitro P. falciparum culture, [3H]-hypoxanthine uptake, 3D7; assay type: cell-based; details: Plasmodium falciparum; for EC50: 3D7, Table 2b, read-out: 3D7 EC50; for IC50: 3D7, Table 3, [3H]-hypoxanthine uptake, read-out: 3D7 IC50
Outline: as §3

Cytochrome P450 1A2 = Cytochrome P450 1A2 (Homo sapiens (Human), UniProt P05177); assay type: in vitro ADME
Text: as §2

Cytochrome P450 2C9 = Cytochrome P450 2C9 (Homo sapiens (Human), UniProt P11712); assay: Cytochrome P450 inhibition, 2C9; assay type: in vitro ADME
Text: as §2

pfDHODH = pfDHODH (Plasmodium falciparum (isolate 3D7), UniProt Q08210); assay: DHODH chromogen reduction (DCIP) assay, pfDHODH; assay type: biochemical, P. falciparum; details: read-out: pfDHODH IC50
[1] = Table 3, DCIP assay, 20 nM pfDHODH

Cytochrome P450 1A2, sequence (P05177 whole entry): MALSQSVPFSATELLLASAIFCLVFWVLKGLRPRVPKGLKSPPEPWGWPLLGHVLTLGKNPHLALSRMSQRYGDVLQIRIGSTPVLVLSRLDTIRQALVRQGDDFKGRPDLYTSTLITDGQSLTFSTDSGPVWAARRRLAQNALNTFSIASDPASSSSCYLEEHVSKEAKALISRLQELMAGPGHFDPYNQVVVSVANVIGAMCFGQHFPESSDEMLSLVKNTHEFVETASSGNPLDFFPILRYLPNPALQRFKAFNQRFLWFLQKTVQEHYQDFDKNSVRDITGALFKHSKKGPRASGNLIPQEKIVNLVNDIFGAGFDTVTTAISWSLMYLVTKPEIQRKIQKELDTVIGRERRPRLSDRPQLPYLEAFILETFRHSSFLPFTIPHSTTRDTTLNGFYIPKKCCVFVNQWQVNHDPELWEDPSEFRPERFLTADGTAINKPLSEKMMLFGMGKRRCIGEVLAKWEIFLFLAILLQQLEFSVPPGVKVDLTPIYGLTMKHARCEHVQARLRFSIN
Cytochrome P450 2D6, sequence (P10635 whole entry): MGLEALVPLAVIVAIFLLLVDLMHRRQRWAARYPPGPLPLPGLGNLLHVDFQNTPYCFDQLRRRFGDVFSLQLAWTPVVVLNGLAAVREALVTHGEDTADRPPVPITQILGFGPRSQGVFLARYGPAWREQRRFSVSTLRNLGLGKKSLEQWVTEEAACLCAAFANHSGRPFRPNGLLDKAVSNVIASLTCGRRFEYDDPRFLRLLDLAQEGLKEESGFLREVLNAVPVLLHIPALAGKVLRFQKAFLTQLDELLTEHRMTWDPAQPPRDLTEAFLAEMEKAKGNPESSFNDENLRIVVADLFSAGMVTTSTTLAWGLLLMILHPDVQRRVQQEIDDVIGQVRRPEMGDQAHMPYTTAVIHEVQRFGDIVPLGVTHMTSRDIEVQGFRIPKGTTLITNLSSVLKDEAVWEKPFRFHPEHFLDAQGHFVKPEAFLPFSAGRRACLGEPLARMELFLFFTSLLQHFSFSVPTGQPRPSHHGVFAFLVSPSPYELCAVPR
Cytochrome P450 2C9, sequence (P11712 whole entry): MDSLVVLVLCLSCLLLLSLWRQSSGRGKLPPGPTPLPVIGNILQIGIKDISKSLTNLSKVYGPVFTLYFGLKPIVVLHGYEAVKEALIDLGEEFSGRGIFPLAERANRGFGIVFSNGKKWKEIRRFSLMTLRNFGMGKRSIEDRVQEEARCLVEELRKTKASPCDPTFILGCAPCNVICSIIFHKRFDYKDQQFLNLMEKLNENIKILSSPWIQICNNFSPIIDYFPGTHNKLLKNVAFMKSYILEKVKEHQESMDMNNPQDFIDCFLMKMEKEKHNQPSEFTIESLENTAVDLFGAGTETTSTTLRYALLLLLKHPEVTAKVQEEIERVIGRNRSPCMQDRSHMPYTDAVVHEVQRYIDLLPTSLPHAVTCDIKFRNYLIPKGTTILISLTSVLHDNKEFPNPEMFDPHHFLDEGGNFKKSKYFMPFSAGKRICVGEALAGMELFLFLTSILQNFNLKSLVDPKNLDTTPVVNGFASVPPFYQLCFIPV
Cytochrome P450 2C19, sequence (P33261 whole entry): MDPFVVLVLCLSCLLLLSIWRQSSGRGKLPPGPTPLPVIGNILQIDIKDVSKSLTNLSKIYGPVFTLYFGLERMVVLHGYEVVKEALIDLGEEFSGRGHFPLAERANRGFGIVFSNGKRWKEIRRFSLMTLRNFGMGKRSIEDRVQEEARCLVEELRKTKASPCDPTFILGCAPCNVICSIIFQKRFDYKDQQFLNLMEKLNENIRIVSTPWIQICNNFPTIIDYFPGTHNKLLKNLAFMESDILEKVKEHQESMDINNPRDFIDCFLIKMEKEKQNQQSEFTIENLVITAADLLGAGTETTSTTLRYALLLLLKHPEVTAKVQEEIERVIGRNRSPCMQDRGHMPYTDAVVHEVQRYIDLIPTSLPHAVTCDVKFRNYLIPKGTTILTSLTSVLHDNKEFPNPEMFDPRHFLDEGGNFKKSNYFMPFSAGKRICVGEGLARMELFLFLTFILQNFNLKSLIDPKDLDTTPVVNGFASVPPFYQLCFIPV
Cytochrome P450 3A4, sequence (P08684 whole entry): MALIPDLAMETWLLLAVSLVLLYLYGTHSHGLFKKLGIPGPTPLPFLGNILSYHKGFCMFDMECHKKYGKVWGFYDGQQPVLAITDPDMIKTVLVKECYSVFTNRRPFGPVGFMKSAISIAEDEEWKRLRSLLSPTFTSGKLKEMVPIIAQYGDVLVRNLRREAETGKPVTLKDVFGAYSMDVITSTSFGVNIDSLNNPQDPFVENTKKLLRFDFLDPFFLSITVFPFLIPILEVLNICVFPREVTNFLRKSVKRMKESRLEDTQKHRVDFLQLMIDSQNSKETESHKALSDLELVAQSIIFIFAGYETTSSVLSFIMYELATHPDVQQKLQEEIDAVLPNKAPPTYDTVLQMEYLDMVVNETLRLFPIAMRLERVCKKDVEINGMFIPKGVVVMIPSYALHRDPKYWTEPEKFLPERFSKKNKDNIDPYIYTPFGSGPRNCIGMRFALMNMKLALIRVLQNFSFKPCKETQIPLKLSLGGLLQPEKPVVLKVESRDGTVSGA
pfDHODH, sequence (Q08210 159-565 limits assumed): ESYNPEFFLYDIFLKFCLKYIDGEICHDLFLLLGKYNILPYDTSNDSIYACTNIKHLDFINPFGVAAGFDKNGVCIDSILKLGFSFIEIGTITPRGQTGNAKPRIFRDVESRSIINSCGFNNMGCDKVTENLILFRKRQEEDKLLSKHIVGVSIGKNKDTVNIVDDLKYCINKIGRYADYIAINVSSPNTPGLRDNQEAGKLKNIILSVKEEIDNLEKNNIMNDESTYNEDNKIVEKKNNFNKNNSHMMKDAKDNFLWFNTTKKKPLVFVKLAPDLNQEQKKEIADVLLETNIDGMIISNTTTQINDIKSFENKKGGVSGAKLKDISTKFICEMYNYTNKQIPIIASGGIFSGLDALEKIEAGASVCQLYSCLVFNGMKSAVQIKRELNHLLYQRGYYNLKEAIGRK
hsDHODH, sequence (Q02127 29-395 limits assumed): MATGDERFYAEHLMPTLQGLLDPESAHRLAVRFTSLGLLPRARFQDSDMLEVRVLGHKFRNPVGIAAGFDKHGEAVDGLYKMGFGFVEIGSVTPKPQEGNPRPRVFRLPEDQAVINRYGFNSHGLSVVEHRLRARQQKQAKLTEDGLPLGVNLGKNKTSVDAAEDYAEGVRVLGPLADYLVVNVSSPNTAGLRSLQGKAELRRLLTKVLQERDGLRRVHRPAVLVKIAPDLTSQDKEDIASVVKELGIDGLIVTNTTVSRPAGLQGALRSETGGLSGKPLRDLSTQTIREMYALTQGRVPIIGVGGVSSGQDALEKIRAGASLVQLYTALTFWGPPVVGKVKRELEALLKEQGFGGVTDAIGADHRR

Structure (SMILES)	microsomal CLint (Hepatic clearance, rat)	Cytochrome P450 Inhibition, 2D6 (Cytochrome P450 2D6)	EC50 (P. falciparum Dd2)	IC50 (P. falciparum Dd2)	microsomal CLint (Hepatic clearance, human)	Cytochrome P450 Inhibition, 2C19 (Cytochrome P450 2C19)	logD (Log D measurement)	IC50 (hsDHODH)	Papp (Permeability)	Cytochrome P450 Inhibition, 3A4 (Cytochrome P450 3A4)	solubility (Solubility measurement)	EC50 (P. falciparum 3D7)	IC50 (P. falciparum 3D7)	Cytochrome P450 Inhibition, 1A2 (Cytochrome P450 1A2)	Cytochrome P450 Inhibition, 2C9 (Cytochrome P450 2C9)	IC50 (pfDHODH; Table 2b)	IC50 (pfDHODH; [1])
CCCNC(=O)c1ccc(N2CCCCC2)s1 [Compound 8, 5-(piperidin-1-yl)-N-propylthiophene-2-carboxamide]	> 119 µL/min/mg	>5.0 in 2D6 μM	> 10 µM	> 10 µM	> 72 µL/min/mg	>5.0 in 2C19 μM	3.2	> 30 µM	43 ×10⁻⁶ cm/s	>5.0 in 3A4 μM	> 30 µg/mL	> 10 µM	> 10 µM	>5.0 in 1A2 μM	>5.0 in 2C9 μM	230 µM	> 30 µM
CCCNC(=O)c1ccc(-n2cccn2)s1 [Compound 9, N-propyl-5-(1H-pyrazol-1-yl)thiophene-2-carboxamide]	104 µL/min/mg	>5.0 in 2D6 μM	> 10 µM	> 10 µM	59 µL/min/mg	>5.0 in 2C19 μM	2.2	> 30 µM	22 ×10⁻⁶ cm/s	>5.0 in 3A4 μM	> 30 µg/mL	> 10 µM	> 10 µM	>5.0 in 1A2 μM	>5.0 in 2C9 μM	> 250 µM	> 30 µM
CCCNC(=O)c1ccc(N2CCN(C)CC2)s1 [Compound 10, 5-(4-methylpiperazin-1-yl)-N-propylthiophene-2-carboxamide]	16 µL/min/mg	>5.0 in 2D6 μM	> 10 µM	> 10 µM	8 µL/min/mg	>5.0 in 2C19 μM	1.5	–	11 ×10⁻⁶ cm/s	>5.0 in 3A4 μM	24 µg/mL (≈ 89.8 µM)	> 10 µM	> 10 µM	>5.0 in 1A2 μM	>5.0 in 2C9 μM	> 250 µM	> 30 µM
